According to PubChem BioAssay (NCI):
Values joined by “and” are separate entries in the source; they are usually repeats but may differ in a detail not shown here. Identical values can stand only once.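 Five compound concentrations were applied to cells in 96-well plates for 48 hours; endpoints were derived by simple linear interpolation of the resulting dose-response curve. GI50 marks 50% less growth. At the TGI there is no net growth.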

Assays:
Test in all cases: DTP human tumour cell line panel, 48 h
NCI-H226 lung = test system: NCI-H226 lung
OVCAR-5 ovarian = test system: OVCAR-5 ovarian
SW-620 colon = test system: SW-620 colon
SNB-75 CNS = test system: SNB-75 CNS
BT-549 breast = test system: BT-549 breast
SF-295 CNS = test system: SF-295 CNS
SK-MEL-28 melanoma = test system: SK-MEL-28 melanoma
RPMI-8226 leukemia = test system: RPMI-8226 leukemia
OVCAR-3 ovarian = test system: OVCAR-3 ovarian
TK-10 renal = test system: TK-10 renal

SMILES | TGI (NCI-H226 lung) | TGI (OVCAR-5 ovarian) | TGI (SW-620 colon) | TGI (SNB-75 CNS) | TGI (BT-549 breast) | TGI (SF-295 CNS) | TGI (SK-MEL-28 melanoma) | TGI (RPMI-8226 leukemia) | TGI (OVCAR-3 ovarian) | TGI (TK-10 renal) | GI50 (NCI-H226 lung) | GI50 (OVCAR-5 ovarian) | GI50 (SW-620 colon) | GI50 (SNB-75 CNS) | GI50 (BT-549 breast) | GI50 (SF-295 CNS) | GI50 (SK-MEL-28 melanoma) | GI50 (RPMI-8226 leukemia) | GI50 (OVCAR-3 ovarian) | GI50 (TK-10 renal)
c1cc2n(n1)CCN2 | > 9350 µM | > 10000 µM | > 10000 µM | 9460 µM | > 10000 µM | 4350 µM | > 10000 µM | > 10000 µM | > 10000 µM | > 10000 µM | – | – | – | – | – | – | – | – | – | –
Cc1cc(NCCN(C(C)C)C(C)C)nc(/N=C(\N)Nc2ccc(Cl)c(C(F)(F)F)c2)n1 | 4.15 µM | 5.24 µM | 1.62 µM | 1.03 µM | 3.59 µM | 2.14 µM | 0.32 µM | 0.662 µM | 2.77 µM | 1.04 µM | 1.96 µM | 2.36 µM | 0.532 µM | 0.449 µM | 1.64 µM | 0.752 µM | 0.176 µM | 0.22 µM | 1.32 µM | 0.297 µM
O=C(N/C(=C/c1ccc(Cl)cc1Cl)c1nc2ccccc2s1)c1ccccc1 | 27.7 µM | 32 µM | 24.6 µM | 34.4 µM | 64.8 µM | 26.5 µM | 34.2 µM | > 100 µM | 24.5 µM | 42.8 µM | – | – | – | – | – | – | – | – | – | –
CCOC(=O)c1cc2c(n1Cc1cccc(OC)c1)-c1oncc1CCC2 | > 100 µM | > 100 µM | > 100 µM | 6.56 µM | > 100 µM | > 100 µM | > 100 µM | > 43 µM | 4.53 µM | > 100 µM | 32.1 µM | 6.31 µM | 0.554 µM | 0.927 µM | 1.61 µM | 0.616 µM | 5.55 µM | 1.81 µM | 0.372 µM | 7 µM
O=C(O)C1OC1(c1cccc(Cl)c1)c1ccccc1Cl (stereo unspecified) | 83.8 µM | > 100 µM | > 100 µM | 57.6 µM | 39 µM | 76.5 µM | 61.3 µM | 94.8 µM | 46.1 µM | > 100 µM | – | – | – | – | – | – | – | – | – | –
COc1cccc(C2=C(c3c(C)n(C)c4ccccc34)C(=O)NC2=O)c1 | > 25 µM | > 25 µM | > 25 µM | > 25 µM | > 25 µM | > 25 µM | > 25 µM | > 25 µM | > 25 µM | > 25 µM | > 19.1 µM | > 25 µM | 12.4 µM | 6.63 µM | > 21.7 µM | > 25 µM | 24.9 µM | > 25 µM | > 23.9 µM | 24.2 µM
O=c1ccn(C2CC(O)C(CO)O2)c(=O)[nH]1 (stereo unspecified) | > 5000 µM | > 5000 µM | > 5000 µM | > 5000 µM | > 5000 µM | > 5000 µM | > 5000 µM | > 5000 µM | > 5000 µM | > 5000 µM | > 5000 µM | > 5000 µM | > 5000 µM | > 5000 µM | > 5000 µM | > 5000 µM | > 5000 µM | 1190 µM | > 5000 µM | > 5000 µM
O=CN/C=C/c1cccc(O)c1 | 89.2 µM | > 96.1 µM | 98.8 µM | > 92.5 µM | 58.5 µM | > 63.1 µM | > 100 µM | > 100 µM | > 100 µM | > 100 µM | – | – | – | – | – | – | – | – | – | –
CCn1cnc(C[C@H](NC(=O)[C@@H](NC(=O)Nc2cc(C(F)(F)F)cc(C(F)(F)F)c2)C(C)C)C(=O)OC)c1 | > 10 µM | > 10 µM | 4.01 µM | 6.82 µM | 3.58 µM | > 10 µM | 4.28 µM | 8.45 µM | 3.44 µM | 3.89 µM | 3.74 µM | 4.98 µM | 2.01 µM | 1.61 µM | 1.78 µM | > 10 µM | 1.98 µM | 2.76 µM | 1.82 µM | 1.88 µM
COc1c(O)cc2oc(-c3ccc(O)cc3)cc(=O)c2c1O | > 100 µM | > 100 µM | > 100 µM | 58.2 µM | > 100 µM | > 100 µM | > 100 µM | > 100 µM | > 100 µM | > 100 µM | – | – | – | – | – | – | – | – | – | –
Nc1nc(N)c2nc(CNc3ccc(C(=O)NC(CC(=O)O)C(=O)O)cc3)cnc2n1 (stereo unspecified) | > 100 µM | > 100 µM | > 100 µM | > 100 µM | > 100 µM | > 34.6 µM | > 100 µM | > 100 µM | > 100 µM | > 100 µM | 30.6 µM | 16.3 µM | 0.274 µM | 22.2 µM | 1.03 µM | 0.508 µM | > 100 µM | 6.43 µM | 0.694 µM | 1.71 µM
O=C(Cn1c(=O)c(-c2ccccc2)nc2ccccc21)Nc1ccc(F)cc1 | > 100 µM | > 100 µM | > 100 µM | > 100 µM | > 100 µM | > 100 µM | > 100 µM | > 100 µM | > 100 µM | > 100 µM | > 100 µM | > 100 µM | 67 µM | 38.8 µM | 36.4 µM | > 100 µM | > 100 µM | 37.4 µM | > 100 µM | 85 µM
COc1cc(NC(C)CCCN)c2ncccc2c1 (stereo unspecified) | > 100 µM | > 100 µM | > 100 µM | > 100 µM and 80.5 µM | > 100 µM | > 100 µM | 47.5 µM and > 100 µM | > 100 µM | 84.2 µM and > 100 µM | > 100 µM | – | – | – | – | – | – | 22.1 µM and 74 µM | – | – | –
CC1(N)CCN(c2cccnc2NC(=O)c2nc(-c3ncccc3C(F)(F)F)cnc2N)CC1 | > 100 µM | > 100 µM | > 100 µM | > 100 µM | > 100 µM | > 100 µM | 85.6 µM | > 100 µM | > 100 µM | > 100 µM | 35.9 µM | 20 µM | 28.4 µM | 18.9 µM | 18.2 µM | 99.3 µM | 25 µM | 24.4 µM | 26.2 µM | 4.35 µM
O=C(Nc1cccc(-n2cc(-c3ccncc3)c(-c3ccc(Cl)c(O)c3)n2)c1)c1ccc(N2CCOCC2)c(C(F)(F)F)c1 | > 50 µM | > 50 µM | 5.68 µM | > 50 µM | > 50 µM | 7.55 µM | 6.04 µM | 12.5 µM | > 50 µM | > 50 µM | > 50 µM | > 50 µM | 1.72 µM | 1.3 µM | 19.4 µM | 1.71 µM | 1.5 µM | 1.4 µM | 4.81 µM | 21.3 µM
CCCCC[C@H]1C/C=C2/C(=O)C=C[C@@H]2C/C=C\CCCC(=O)O[C@@H](CCCCC)C/C=C2/C(=O)C=C[C@@H]2C/C=C\CCCC(=O)O1 | 1.64 µM | 1.31 µM | 0.734 µM | 2.4 µM | 1.02 µM | 1.29 µM | 0.675 µM | 0.599 µM | 0.353 µM | 1.31 µM | 0.746 µM | 0.566 µM | 0.135 µM | 0.552 µM | 0.32 µM | 0.506 µM | 0.196 µM | 0.098 µM | 0.0955 µM | 0.582 µM
COC1=CC(c2ccc[nH]2)=N/C1=C\c1[nH]c(C)c(C(=O)CCCCC(=O)NC(C)(C)C)c1C | 15 µM | 8.73 µM | 2.26 µM | 9 µM | 4.5 µM | 6.66 µM | 3.2 µM | 1.64 µM | 2.73 µM | 3.41 µM | 2.97 µM | 1.89 µM | 0.947 µM | 2.79 µM | 1.41 µM | 2.17 µM | 1.59 µM | 0.237 µM | 1.22 µM | 1.39 µM
COc1cccc(-c2nn(-c3ccccc3)cc2-c2ccnc(NCCCNC(=O)Nc3ccc(Cl)c(Cl)c3)c2)c1 | 41.6 µM | 25.4 µM | 10.1 µM | 19.2 µM | 11.2 µM | 6.43 µM | 4.16 µM | 5.37 µM | 17.3 µM | 17.1 µM | 5.61 µM | 3.53 µM | 3.02 µM | 2.52 µM | 3.2 µM | 2.38 µM | 1.93 µM | 2.13 µM | 4.57 µM | 4.51 µM
CC1OC(OC2C[C@](O)(C(=O)CF)Cc3c(O)c4c(c(O)c32)C(=O)c2ccccc2C4=O)CC(N)C1O (stereo partly specified) | < 0.0171 µM | 0.541 µM | 0.741 µM | 0.09 µM | 0.918 µM | 4.74 µM | 1.91 µM | 0.132 µM | 1.49 µM | 0.497 µM | – | – | – | – | – | – | – | – | – | –
CNCCCn1c2c(c3ccc([N+](=O)[O-])cc3c1=O)C(=O)c1cc(OC)cnc1-2 | 0.245 µM | 0.882 µM | 1.12 µM | 2.46 µM | 2.56 µM | 0.193 µM | 2.1 µM | 0.527 µM | 0.617 µM | 1.5 µM | 0.0946 µM | 0.135 µM | 0.0349 µM | 0.134 µM | 0.373 µM | 0.0319 µM | 0.387 µM | 0.0764 µM | 0.174 µM | 0.317 µM
COC(=O)c1ccccc1OCc1cc(=O)oc2ccc(C)cc12 | > 100 µM | > 100 µM | > 100 µM | 45.5 µM | > 100 µM | > 81.2 µM | > 100 µM | > 100 µM | > 100 µM | > 100 µM | – | – | – | – | – | – | – | – | – | –
O=C1C(N2CC2)=C(N2CC2)C(=O)C(N2CC2)=C1N1CC1 | 0.714 µM | 6.92 µM | 6.09 µM | 1.11 µM | 1.53 µM | 1 µM | 2.32 µM | 17.2 µM | 3.46 µM | > 100 µM | 0.157 µM | 2.29 µM | 0.419 µM | 0.158 µM | 0.318 µM | < 0.0211 µM | 0.838 µM | 2.74 µM | 1.04 µM | 2.59 µM
COc1ccc(C2CC(C)(O)Oc3cc4c(cc32)OCO4)cc1 (stereo unspecified) | > 100 µM | > 100 µM | > 100 µM | > 100 µM | > 88 µM | > 100 µM | > 100 µM | > 100 µM | > 100 µM | > 100 µM | – | – | – | – | – | – | – | – | – | –
O=C(O)c1cc2ccc3ccccc3c2oc1=O | > 100 µM | > 100 µM | > 100 µM | > 100 µM | > 100 µM | > 100 µM | > 100 µM | > 100 µM | > 100 µM | > 100 µM | – | – | – | – | – | – | – | – | – | –
